Measurements reported in patent US6852673B2, “Herbicidal pyridine compounds” (BASF Aktiengesellschaft, priority 1998, dated 2005).

Experiments:
Format in all cases: in vivo
[1] = tested on: Solanum nigrum (SOLNI); test: Pre-emergence herbicidal evaluation, black nightshade
Text: (§1) The pre-emergence herbicidal activity of the compounds of the present invention is exemplified by the following test in which the seeds of a variety of monocotyledonous and dicotyledonous plants are seperately mixed with potting soil and planted on top of approximately one inch of soil in separate pots. After planting, the pots are sprayed with the selected aqueous acetone solution containing test compound in sufficient quantity to provide the equivalent of about 0.0125 to 0.4 kg per hectare of test compound per pot. The treated pots are then placed on greenhouse benches, watered and cared for in accordance with conventional greenhouse procedures. From 2 to 4 weeks after treatment, the tests are terminated and each pot is examined and rated according to the rating system set forth below.

[2] = tested on: Lamium purpureum (LAMPU); test: Pre-emergence herbicidal evaluation, purple deadnettle
Text: as §1

[3] = tested on: Stellaria media (STEME); test: Pre-emergence herbicidal evaluation, chickweed
Text: as §1

[4] = tested on: Digitaria sanguinalis (DIGSA); test: Pre-emergence herbicidal evaluation, large crabgrass
Text: as §1

[5] = tested on: Abutilon theophrasti (ABUTH); test: Pre-emergence herbicidal evaluation, velvetleaf
Text: as §1

[6] = tested on: Hordeum vulgare (HORVW); test: Pre-emergence herbicidal evaluation, winter barley
Text: as §1

[7] = tested on: Alopecurus myosuroides (ALOMY); test: Pre-emergence herbicidal evaluation, black grass
Text: as §1

[8] = tested on: Ipomoea hederacea (IPOHE); test: Pre-emergence herbicidal evaluation, morning glory
Text: as §1

[9] = tested on: Triticum aestivum (TRZAW); test: Pre-emergence herbicidal evaluation, winter wheat
Text: as §1

[10] = tested on: Matricaria inodora (MATIN); test: Pre-emergence herbicidal evaluation, mayweed
Text: as §1

[11] = tested on: Galium aparine (GALAP); test: Pre-emergence herbicidal evaluation, cleaver
Text: as §1

[12] = tested on: Setaria viridis (SETVI); test: Pre-emergence herbicidal evaluation, green foxtail
Text: as §1

CC(Cl)=CCOc1cc(C#N)cc(Oc2csc(C(F)(F)F)c2)n1 [Example 28]
0 (0 - No effect): HORVW rating ([6]; dose 0.025 kg/ha) | IPOHE rating ([8]; dose 0.025 kg/ha) | IPOHE rating ([8]; dose 0.1 kg/ha) | TRZAW rating ([9]; dose 0.025 kg/ha) | TRZAW rating ([9]; dose 0.1 kg/ha)
5 (5 - Definite injury): LAMPU rating ([2]; dose 0.025 kg/ha) | ABUTH rating ([5]; dose 0.025 kg/ha)
9 (9 - Complete kill): STEME rating ([3]; dose 0.025 kg/ha) | STEME rating ([3]; dose 0.1 kg/ha) | STEME rating ([3]; dose 0.4 kg/ha) | DIGSA rating ([4]; dose 0.1 kg/ha) | DIGSA rating ([4]; dose 0.4 kg/ha) | ALOMY rating ([7]; dose 0.4 kg/ha) | MATIN rating ([10]; dose 0.025 kg/ha) | MATIN rating ([10]; dose 0.1 kg/ha) | MATIN rating ([10]; dose 0.4 kg/ha)
7 (7 - Good herbicidal effect): ABUTH rating ([5]; dose 0.1 kg/ha)
4 (4 - Injury): SOLNI rating ([1]; dose 0.025 kg/ha)
3 (3 - Moderate effect): DIGSA rating ([4]; dose 0.025 kg/ha) | HORVW rating ([6]; dose 0.4 kg/ha) | ALOMY rating ([7]; dose 0.025 kg/ha)
1 (1 - Trace effect): HORVW rating ([6]; dose 0.1 kg/ha) | IPOHE rating ([8]; dose 0.4 kg/ha) | TRZAW rating ([9]; dose 0.4 kg/ha)
8 (8 - Approaching complete kill): SOLNI rating ([1]; dose 0.1 kg/ha) | SOLNI rating ([1]; dose 0.4 kg/ha) | LAMPU rating ([2]; dose 0.1 kg/ha) | LAMPU rating ([2]; dose 0.4 kg/ha) | ABUTH rating ([5]; dose 0.4 kg/ha) | ALOMY rating ([7]; dose 0.1 kg/ha)

C=C(Cl)COc1cc(C)cc(Oc2cc(C(F)(F)F)nn2C)n1 [Example 36]
9 (9 - Complete kill): LAMPU rating ([2]; dose 0.4 kg/ha) | STEME rating ([3]; dose 0.1 kg/ha) | STEME rating ([3]; dose 0.4 kg/ha) | DIGSA rating ([4]; dose 0.1 kg/ha) | DIGSA rating ([4]; dose 0.4 kg/ha) | ALOMY rating ([7]; dose 0.4 kg/ha) | IPOHE rating ([8]; dose 0.4 kg/ha) | MATIN rating ([10]; dose 0.1 kg/ha) | MATIN rating ([10]; dose 0.4 kg/ha) | SETVI rating ([12]; dose 0.025 kg/ha) | SETVI rating ([12]; dose 0.1 kg/ha) | SETVI rating ([12]; dose 0.4 kg/ha)
3 (3 - Moderate effect): GALAP rating ([11]; dose 0.1 kg/ha) | HORVW rating ([6]; dose 0.1 kg/ha) | IPOHE rating ([8]; dose 0.1 kg/ha)
5 (5 - Definite injury): STEME rating ([3]; dose 0.025 kg/ha) | ABUTH rating ([5]; dose 0.025 kg/ha) | ABUTH rating ([5]; dose 0.1 kg/ha) | HORVW rating ([6]; dose 0.4 kg/ha)
7 (7 - Good herbicidal effect): LAMPU rating ([2]; dose 0.025 kg/ha) | MATIN rating ([10]; dose 0.025 kg/ha)
4 (4 - Injury): ALOMY rating ([7]; dose 0.025 kg/ha)
8 (8 - Approaching complete kill): LAMPU rating ([2]; dose 0.1 kg/ha) | DIGSA rating ([4]; dose 0.025 kg/ha) | GALAP rating ([11]; dose 0.4 kg/ha) | ABUTH rating ([5]; dose 0.4 kg/ha) | ALOMY rating ([7]; dose 0.1 kg/ha)
0 (0 - No effect): GALAP rating ([11]; dose 0.025 kg/ha) | TRZAW rating ([9]; dose 0.025 kg/ha)
2 (2 - Slight effect): HORVW rating ([6]; dose 0.025 kg/ha) | IPOHE rating ([8]; dose 0.025 kg/ha) | TRZAW rating ([9]; dose 0.1 kg/ha) | TRZAW rating ([9]; dose 0.4 kg/ha)

CC(Cl)=CCOc1nc(Oc2cc(C(F)(F)F)nn2C)c(F)c(C)c1F [Example 35]
3 (3 - Moderate effect): TRZAW rating ([9]; dose 0.06 kg/ha) | TRZAW rating ([9]; dose 0.12 kg/ha)
9 (9 - Complete kill): STEME rating ([3]; dose 0.06 kg/ha) | STEME rating ([3]; dose 0.12 kg/ha) | ALOMY rating ([7]; dose 0.04 kg/ha) | ALOMY rating ([7]; dose 0.06 kg/ha) | ALOMY rating ([7]; dose 0.12 kg/ha) | MATIN rating ([10]; dose 0.04 kg/ha) | MATIN rating ([10]; dose 0.06 kg/ha) | MATIN rating ([10]; dose 0.12 kg/ha) | SETVI rating ([12]; dose 0.06 kg/ha) | SETVI rating ([12]; dose 0.12 kg/ha)
8 (8 - Approaching complete kill): STEME rating ([3]; dose 0.04 kg/ha) | SETVI rating ([12]; dose 0.04 kg/ha)
1 (1 - Trace effect): TRZAW rating ([9]; dose 0.04 kg/ha)
